Reference: PubChem BioAssay (NCI)
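Tested at 5 concentrations; 48 h exposure; 96-well plates; endpoints linearly interpolated, else capped at highest concentration. Here, GI50 denotes the concentration required for 50% inhibition of growth. The concentration for full growth arrest is given as TGI.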

Legend:
Experiment in all cases: NCI anticancer screen, dose series, 48 h
OVCAR-5 ovarian = test system: OVCAR-5 ovarian
OVCAR-8 ovarian = test system: OVCAR-8 ovarian
M14 melanoma = test system: M14 melanoma
SNB-75 CNS = test system: SNB-75 CNS
SN12C renal = test system: SN12C renal
UACC-257 melanoma = test system: UACC-257 melanoma
NCI-H23 lung = test system: NCI-H23 lung
IGROV1 ovarian = test system: IGROV1 ovarian
SK-OV-3 ovarian = test system: SK-OV-3 ovarian
NCI-H522 lung = test system: NCI-H522 lung

| Compound | GI50 (OVCAR-5 ovarian) | TGI (OVCAR-5 ovarian) | GI50 (OVCAR-8 ovarian) | TGI (OVCAR-8 ovarian) | GI50 (M14 melanoma) | TGI (M14 melanoma) | GI50 (SNB-75 CNS) | TGI (SNB-75 CNS) | GI50 (SN12C renal) | TGI (SN12C renal) | GI50 (UACC-257 melanoma) | TGI (UACC-257 melanoma) | GI50 (NCI-H23 lung) | TGI (NCI-H23 lung) | GI50 (IGROV1 ovarian) | TGI (IGROV1 ovarian) | GI50 (SK-OV-3 ovarian) | TGI (SK-OV-3 ovarian) | GI50 (NCI-H522 lung) | TGI (NCI-H522 lung) |
| --- | --- | --- | --- | --- | --- | --- | --- | --- | --- | --- | --- | --- | --- | --- | --- | --- | --- | --- | --- | --- |
| CCCCCCCCCCCCC(NC(C)=O)(C(=O)OCC)C(=O)OCC | 13.7 µM | 27.3 µM | 12.7 µM | 32.3 µM | 12.7 µM | 27.3 µM | 11.3 µM | 23.8 µM | 10.2 µM | 22 µM | 11.7 µM | 26.1 µM | 10.8 µM | 24.8 µM | 12.6 µM | 37.2 µM | 12.6 µM | 25.7 µM |  |  |
| Cc1ccc2c(c1)-c1oc(=O)c(-c3cc4ccccc4oc3=O)cc1C(O)O2 (stereo not drawn) | 20.8 µM | 49.8 µM | 19.9 µM | 62.5 µM | 21.4 µM | 40.6 µM | 15.6 µM | 47 µM | 19.7 µM | 45 µM | 34 µM | 92.6 µM | 23.5 µM | 45.8 µM | 17.4 µM | 52.1 µM |  |  | 19.4 µM | 48.1 µM |
| CC(C)=CCc1c(O)c(C(=O)CC(C)C)c(O)c2c(-c3ccccc3)cc(=O)oc12 |  |  | 8.98 µM | > 50 µM | 11.5 µM | > 50 µM | 9.27 µM | 41.9 µM | 6.07 µM | > 50 µM | 6.52 µM | 30.2 µM | 6.84 µM | > 50 µM | 9.7 µM | > 50 µM | 10.3 µM | 35.1 µM | 7.02 µM | 28.2 µM |
| Cc1nc2ccccc2c(/C=C/c2ccccc2)c1C(=O)/C=C/c1ccccc1 | 1.93 µM | 3.52 µM | 2.11 µM | 5.67 µM |  |  |  |  | 1.9 µM | 4.07 µM |  |  |  |  | 1.84 µM | 6.18 µM | 3.92 µM | > 100 µM |  |  |
| CCOC(=O)NC(=O)c1cn(C2OC(COC(=O)CCCCCCCCC(=O)OCC3OC(n4cc(C(=O)NC(=O)OCC)c(=O)[nH]c4=O)C4OC(C)(C)OC34)C3OC(C)(C)OC32)c(=O)[nH]c1=O (stereo not drawn) |  | > 100 µM |  | > 100 µM |  | > 100 µM |  | > 100 µM |  | > 100 µM |  | > 100 µM |  | > 100 µM |  | > 100 µM |  |  |  |  |
| COc1cc(=O)oc(/C=C/C=C/C=C/C(C)=C\C2(C)OC(C)C(C)(O)C2O)c1C (stereo not drawn) |  | > 100 µM |  | > 100 µM |  | > 100 µM |  | > 100 µM |  | > 100 µM |  | > 100 µM |  | > 100 µM |  | > 100 µM |  | > 100 µM |  |  |
| COc1cc2c(cc1OC)-c1ncc3cc(OC)c(OC)c(OC)c3c1C2 | 57.3 µM | > 100 µM | 12 µM | 43.1 µM | 45.2 µM | > 100 µM | 72 µM | > 100 µM | 14.4 µM | 47.9 µM | 16.4 µM | 52.6 µM |  |  | 33.5 µM | > 100 µM | 33 µM | > 100 µM | 10.3 µM | 41.7 µM |
| COc1cc(OC)cc(C(=O)Cc2c(C(=O)c3ccccc3)c3ccccc3n2C(=O)c2ccccc2)c1 |  | > 100 µM |  | > 100 µM |  | > 100 µM |  | > 100 µM |  | > 100 µM |  |  |  | > 100 µM |  | > 100 µM |  | 99.8 µM |  | 45 µM |
